Data from US7371555B2, “Polypeptides having α-H-α-amino acid amide racemase activity and nucleic acids encoding the same” (DSM IP Assets B.V., priority 2002, dated 2008).

Assays:
[1] = tested on: lyophilized O. anthropi IA cells; assay: α-H-α-amino acid amide racemase activity of lyophilized O. anthropi IA cells; assay type: biochemical, Ochrobactrum anthropi IA; conditions: approximately 72 hours at 40° C., 10 times diluted reaction mixture
Protocol: O. anthropi IA cells were cultivated in Medium A containing DL-α-amino-ε-caprolactam (2 g/l) as sole nitrogen source. After incubation at 28° C. and 200 rpm for three days (OD620 nm=4.7), cells were harvested by centrifugation, washed in 20 mM HEPES-NaOH buffer of pH 7.7 and lyophilized.
The assay mixture consisted of 10 mM HEPES-NaOH buffer (pH 7.7) containing toluene (2,5 v/v %), pyridoxal-5-phosphate (20 μM), D- or L-leucine amide (2.5 m %) and in some cases EDTA (20 mM). Per assay 150 mg of lyophilized cells were used. Chemical blanks (with the assay mixture without the O. anthropi IA cells) were used as a negative control. All reaction mixtures (including the blanks) were incubated for approximately 72 hours at 40° C. before the reaction was stopped by the addition of 9 volumes of 1 M H3PO4. Finally, the reaction mixtures were analyzed by HPLC to determine the concentrations of D- and L-leucine amide and of D- and L-leucine. o-Phthaldehyde in combination with D-3-mercapto-2-methylpropionic acid was used in this HPLC method as a chiral reagent for the enantioseparation of these amino compounds (Duchateau, et al., J. Chromatogr. (1992) 623:237-245).
In a number of reactions EDTA was added to inhibit L- and/or D-specific amidase(s) present in the O. anthropi IA cells.
Without EDTA, amidases convert the substrate and/or product α-H-α-amino acid amides into α-H-α-amino acids thereby preventing direct detection of the other α-H-α-amino acid amide enantiomer as racemization product. […] Formation of L-leucine from D-leucine amide could not be detected in the chemical blank.

[2] = tested on: E. coli clone containing the O. anthropi IA α-H-α-amino acid amide racemase gene (pOa(1)PLV49B10); assay: Confirmation of potential positive clone of the O. anthropi IA gene library; assay type: cell-based, Ochrobactrum anthropi IA; conditions: 70 mM substrate, 20 h at 30° C.
Protocol: (§1) Of all 32 potential positive clones identified in the screening, material from the masterplates was used to inoculate 3 ml of liquid screening medium containing 50 mg/l kanamycin. After growth for 2 days at 30° C., cells were collected by centrifuging 2 ml of these cell cultures. Then the cell pellets were washed four times in 25 mM Tris-HCl buffer, pH 7.5. Subsequently, the cell pellets were resuspended in 100 μl substrate solution containing 70 mM of D-phenylalanine amide, or D-leucine amide, or D-valine amide in 50 mM Tris-HCl, pH 7.5 and 1 mM MnCl2. After incubation for 20 h at 30° C., the reactions were stopped by the addition of 100 μl of 0.15 M HCl, after which the reaction mixtures were analyzed by the HPLC method described in Example 1.
This clone contained the O. anthropi IA α-H-α-amino acid amide racemase gene on its 7.7 kb plasmid. This was concluded from the fact that transformation of this plasmid into E. coli TOP10 cells inevitably led to recombinant cells that converted D-leucine amide into L-Leucine. […] The sequence of this gene is listed as nucleotides 98 to 1417 (including the TAA stopcodon) of SEQ ID NO:1 encoding the protein of SEQ ID: NO. 2 as presented infra.

[3] = tested on: E. coli clones with plasmid encoded A. nicotianae NCIMB 41126 α-H-α-amino acid amide racemase activity; assay: Confirmation of potential positive clones of the A. nicotianae NCIMB 41126 gene library; assay type: cell-based, Arthrobacter nicotianae NCIMB 41126; conditions: 70 mM substrate, 10 μM pyridoxal-5-phosphate, 20 h at 30° C.
Protocol: as §1
Confirmation of both potential positive clones was done according to the protocol given in Example 3, with the exception that all 3 substrate solutions used contained 10 μM of pyridoxal-5-phosphate.

**Q.** Which D-leucine ([1]; with EDTA (20 mM)) does the source give for CC(C)C[C@@H](N)C(N)=O [D-leucine amide] here?
**A.** Its D-leucine is 0.007 m %.

**Q.** And the D-leucine amide ([1]; with EDTA (20 mM))?
**A.** Its D-leucine amide is 0.24 m %.

**Q.** What about the L-leucine ([1]; with EDTA (20 mM)) of the same compound?
**A.** Its L-leucine is 0.008 m %.

**Q.** And the L-leucine amide ([1]; with EDTA (20 mM))?
**A.** The L-leucine amide was 0.032 m %.

**Q.** And the D-leucine ([1]; without EDTA)?
**A.** Its D-leucine is 0.015 m %.

**Q.** And the D-leucine amide ([1]; without EDTA)?
**A.** The D-leucine amide was 0.22 m %.

**Q.** What about the L-leucine ([1]; without EDTA) of the same compound?
**A.** Its L-leucine is 0.044 m %.

**Q.** What about the L-leucine amide ([1]; without EDTA) of the same compound?
**A.** Its L-leucine amide is <0.001 m %.

**Q.** What about the “formation of L-leucine from D-leucine amide” value [2] of the same compound?
**A.** The value was “significant formation of L-leucine”.

**Q.** And the “conversion of D-amide into L-acid” value [3]?
**A.** Its value is “significantly converted”.
